The text below walks through data of US20220009945A1, “NOVEL UREA 6,7-DIHYDRO-4H-THIAZOLE[5,4-C]PYRIDINES ACTIVE AGAINST THE HEPATITIS B VIRUS (HBV)” (AICURIS GMBH & CO. KG, priority 2018, published 2022).

The subject of the assay is HBV. The note with it: Hepatitis B virus, HePAD38, 144 h, read-out: Cell Activity.

The structures appear in SMILES notation. Counter-ions that a name gives are not always drawn.

For `Cc1cc(NC(=O)N2CCc3nc(NCC4(O)CCC4)sc3C2)ccc1F` [Example 13, N-(4-fluoro-3-methylphenyl)-2-{[(1-hydroxycyclobutyl)methyl]amino}-4H,5H,6H,7H-[1,3]thiazolo[5,4-c]pyridine-5-carboxamide], the EC50 was less than 1000 nM. Turning to `O=C(Nc1ccc(F)c(Cl)c1)N1CCc2nc(NCC3(O)CC3)sc2C1` [Example 12, N-(3-chloro-4-fluorophenyl)-2-{[(1-hydroxycyclopropyl)methyl]amino}-4H,5H,6H,7H-[1,3]thiazolo[5,4-c]pyridine-5-carboxamide], the EC50 was less than 1000 nM. Next, `O=C(Nc1ccc(F)c(Cl)c1)N1CCc2nc(N[C@H]3C[C@H](O)C3)sc2C1` [Example 2, N-(3-chloro-4-fluorophenyl)-2-{[(1r,3r)-3-hydroxycyclobutyl]amino}-4H,5H,6H,7H-[1,3]thiazolo[5,4-c]pyridine-5-carboxamide]: less than 1000 nM; `O=C(Nc1ccc(F)c(Cl)c1)N1CCc2nc(NS(=O)(=O)C3CC3)sc2C1` [Example 17, N-(3-chloro-4-fluorophenyl)-2-cyclopropanesulfonamido-4H,5H,6H,7H-[1,3]thiazolo[5,4-c]pyridine-5-carboxamide]: 1000 to 10000 nM.

On to `O=C(Nc1ccc(F)c(Cl)c1)N1CCc2nc(NCC3(O)CC(F)(F)C3)sc2C1` [Example 9, N-(3-chloro-4-fluorophenyl)-2-{[(3,3-difluoro-1-hydroxycyclobutyl)methyl]amino}-4H,5H,6H,7H-[1,3]thiazolo[5,4-c]pyridine-5-carboxamide], for which the EC50 was less than 1000 nM. Next, `O=C(Nc1ccc(F)c(Cl)c1)N1CCc2nc(NC3CCOC3)sc2C1` (stereo not drawn) [Example 4, N-(3-chloro-4-fluorophenyl)-2-[(oxolan-3-yl)amino]-4H,5H,6H,7H-[1,3]thiazolo[5,4-c]pyridine-5-carboxamide]: less than 1000 nM. Next, `Nc1nc2c(s1)CN(C(=O)Nc1ccc(F)c(Cl)c1)CC2` [Example 1, 2-amino -N-(3-chloro-4-fluorophenyl)-4H,5H,6H,7H-[1,3] thiazolo[5,4-c]pyridine-5-carboxamide]: less than 1000 nM; `O=C(Nc1nc2c(s1)CN(C(=O)Nc1ccc(F)c(Cl)c1)CC2)C1CCOC1` (stereo not drawn) [Example 10, N-(3-chloro-4-fluorophenyl)-2-(oxolane-3-amido)-4H,5H,6H,7H-[1,3]thiazolo[5,4-c]pyridine-5-carboxamide]: less than 1000 nM. Next, `N#Cc1cc(NC(=O)N2CCc3nc(NCC4(O)CCC4)sc3C2)ccc1F` [Example 14, N-(3-cyano-4-fluorophenyl)-2-{[(1-hydroxycyclobutyl)methyl]amino}-4H,5H,6H,7H-[1,3]thiazolo[5,4-c]pyridine-5-carboxamide]: less than 1000 nM; `C[C@H]1Cc2nc(NC(=O)[C@H]3C[C@H](O)C3)sc2CN1C(=O)Nc1ccc(F)c(Cl)c1` [Example 21, (6S)-N-(3-chloro-4-fluorophenyl)-6-methyl-2-[(1r,3r)-3-hydroxycyclobutaneamido]-4H,5H,6H,7H-[1,3]thiazolo[5,4-c]pyridine-5-carboxamide]: less than 1000 nM. Consider `O=C(Nc1ccnc(C(F)F)c1)N1CCc2nc(N[C@H]3C[C@H](O)C3)sc2C1` [Example 16, N-[2-(difluoromethyl)pyridin-4-yl]-2-{[(1r,3r)-3-hydroxycyclobutyl]amino}-4H,5H,6H,7H-[1,3]thiazolo[5,4-c]pyridine-5-carboxamide], for which the EC50 is 1000 to 10000 nM. As for `O=C(Nc1ccc(F)c(Cl)c1)N1CCc2nc(NCC3(O)CCC3)sc2C1` [Example 6, N-(3-chloro-4-fluorophenyl)-2-{[(1-hydroxycyclobutyl)methyl]amino}-4H,5H,6H,7H-[1,3]thiazolo[5,4-c]pyridine-5-carboxamide], the EC50 was less than 1000 nM. Consider `O=C(Nc1ccc(F)c(Cl)c1)N1CCc2nc(NC(=O)[C@H]3C[C@H](O)C3)sc2C1` [Example 20, N-(3-chloro-4-fluorophenyl)-2-[(1r,3r)-3-hydroxycyclobutaneamido]-4H,5H,6H,7H-[1,3]thiazolo[5,4-c]pyridine-5-carboxamide], for which the EC50 was less than 1000 nM. Next, `O=C(Nc1ccc(F)c(Cl)c1)N1CCc2nc(NC3(CO)CCC3)sc2C1` [Example 3, N-(3-chloro-4-fluorophenyl)-2-{[1-(hydroxymethyl)cyclobutyl]amino}-4H,5H,6H,7H-[1,3]thiazolo[5,4-c]pyridine-5-carboxamide]: less than 1000 nM; `O=C(Nc1ccnc(C(F)F)c1)N1CCc2nc(NCC3(O)CCC3)sc2C1` [Example 19, N-[2-(difluoromethyl)pyridin-4-yl]-2-{[(1-hydroxycyclobutyl)methyl]amino}-4H,5H,6H,7H-[1,3]thiazolo[5,4-c]pyridine-5-carboxamide]: 1000 to 10000 nM; `O=C(Nc1ccc(F)c(Cl)c1)N1CCc2nc(N[C@H]3CC[C@@H](O)CC3)sc2C1` [Example 7, N-(3-chloro-4-fluorophenyl)-2-{[(1s,4s)-4-hydroxycyclohexyl]amino}-4H,5H,6H,7H-[1,3]thiazolo[5,4-c]pyridine-5-carboxamide]: less than 1000 nM.

Consider `O=C(Nc1nc2c(s1)CN(C(=O)Nc1ccc(F)c(Cl)c1)CC2)C1CCOCC1` [Example 11, N-(3-chloro-4-fluorophenyl)-2-(oxane-4-amido)-4H,5H,6H,7H-[1,3]thiazolo[5,4-c]pyridine-5-carboxamide], for which the EC50 was less than 1000 nM. Next, `CC1(S(=O)(=O)Nc2nc3c(s2)CN(C(=O)Nc2ccc(F)c(Cl)c2)CC3)CC1` [Example 18, N-(3-chloro-4-fluorophenyl)-2-(1-methylcyclopropanesulfonamido)-4H,5H,6H,7H-[1,3]thiazolo[5,4-c]pyridine-5-carboxamide]: 1000 to 10000 nM; `CN1CCC(C(=O)Nc2nc3c(s2)CN(C(=O)Nc2ccc(F)c(Cl)c2)CC3)CC1` [Example 8, N-{5-[(3-chloro-4-fluorophenyl)carbamoyl]-4H,5H,6H,7H-[1,3]thiazolo[5,4-c]pyridin-2-yl}-1-methylpiperidine-4-carboxamide formate]: less than 1000 nM; `O=C(Nc1nc2c(s1)CN(C(=O)Nc1ccc(F)c(Cl)c1)CC2)C1CCC(O)CC1` (stereo not drawn) [Example 15, N-(3-chloro-4-fluorophenyl)-2-(4-hydroxycyclohexaneamido)-4H,5H,6H,7H-[1,3]thiazolo[5,4-c]pyridine-5-carboxamide]: less than 1000 nM. Next, `O=C(Nc1ccc(F)c(Cl)c1)N1CCc2nc(NCC3CCOC3)sc2C1` (stereo not drawn) [Example 5, N-(3-chloro-4-fluorophenyl)-2-{[(oxolan-3-yl)methyl]amino}-4H,5H,6H,7H-[1,3]thiazolo [5,4-c]pyridine-5-carboxamide]: less than 1000 nM.
